System: GBM6 cells
Assay: Nanoparticle internalization by flow cytometry, GBM6 cells
Assay type: cell-based, Human
Details: for cell internalization of free dye: average bulk FL of FAM with flow cytometry, over time

Row | Compound | cell internalization of free dye | cell internalization of free dye (listed as free FAM) | time of maximum DOX fluorescence in cells (average bulk FL of DOX by FCT)
1 | 5,6-carboxyfluorescein [FAM] | cannot enter cells | no cell | –
2 | COc1cccc2c1C(=O)c1c(O)c3c(c(O)c1C2=O)C[C@@](O)(C(=O)CO)C[C@@H]3O[C@H]1C[C@H](N)[C@H](O)[C@H](C)O1 [free DOX, doxorubicin] | – | – | 24 h
